From patent US20090098548A1, “MODULATORS OF ENZYMATIC NUCLEIC ACID ELEMENTS MOBILIZATION” (priority 2004, published 2009)
Entries after “also recorded” stand apart in the source; their conditions may differ. Where two headings read alike, the source gives them in different places.

Legend:
HIV-1 integrase [1] = biological target: T1, HIV-1 integrase (Human immunodeficiency virus type 1 group M subtype B, UniProt P04585); assay: HIV-1 integrase in vitro activity, 3' strand processing (denaturing PAGE); type: biochemical; set-up: HIV-1 integrase (1 μM, final concentration); made in house
Method: The degree of 3′ strand processing is measured by the percentage of the signal obtained for the 3′ strand processing product relative to the total signal per lane. IN=integrase.
These values are calculated from data measuring the percentage of the 3′ strand processing product formed, as described in FIG. 6. Assay products are observed using PAGE, as described in the methods section. Each value represents at least two, typically three, independent experiments. Error is represented as the standard deviation (SD) from the fit of the data to the equation used to calculate the IC50.
Increasing concentrations (0.01, 0.1, 1, 10, 20, 30, 50, 75, 100 μM) of each compound were used to determine their ability to block HIV-1 integration in vivo and determine their inherent cytotoxicity, as described in the methods section of example 2 below. Reactions were performed in triplicate. Each compound is further analyzed for inhibition of integrase activity in vitro, as described in FIG. 6. Each value represents three independent experiments. Error is represented as the standard deviation (SD) from the fit of the data to the equation used to calculate the IC50. IN=integrase.
(§1) Transposase and integrase purification: The EK54, MA56 and LP372 hyperactive mutant version of transposase was used for all assays and is referred to as transposase throughout this work. Transposase and integrase proteins were purified as described in Ason, B., and W. S. Reznikoff, J Mol Biol 335:1213-25, 2004 and Taganov, K. D. et al., Journal of Virology 78:5848-55, 2004, both are herein incorporated by reference in their entirety.
(§2) HIV-1 integrase assay: HIV-1 integrase activity was measured as described in Daniel, R. et al., AIDS Res Hum Retroviruses 20:135-44, 2004 (incorporated by reference in its entirety), except that 1.0 μL of either DMSO or inhibitor were added to the reactions. Briefly, HIV-1 integrase (1 μM, final concentration) was pre-incubated with various concentrations of inhibitor at 30° C. for 30 min. A 21-base pair ^32P labeled substrate (1×10^6 dpm), representing the U5 end of the viral genome, and MnCl2 (10 mM, final concentration) were subsequently added to the reaction. The reaction proceeded for 15 min. at 37° C. The reactions were subsequently quenched using EDTA (10 mM, final concentration), and the products separated on a 20% denaturing polyacrylamide gel.

[2] = biological target: T2, Tn5 transposase (EK54, MA56 and LP372 hyperactive mutant version) (Escherichia coli, UniProt Q46731, E54K/L372P/M56A); assay: Inhibition of Tn5 transposase-DNA complex assembly (synapsis), gel shift assay; type: binding, prokaryotic (Tn5 transposon, IS4 family); details: 800 nM transposase, 160 nM dsDNA, 60 bp DNA, fit to exponential decay, ± SD from fit, at least two, typically three experiments
T2 construct: made in house
T2 sequence (Q46731 1-476 E54K/M56A/L372P): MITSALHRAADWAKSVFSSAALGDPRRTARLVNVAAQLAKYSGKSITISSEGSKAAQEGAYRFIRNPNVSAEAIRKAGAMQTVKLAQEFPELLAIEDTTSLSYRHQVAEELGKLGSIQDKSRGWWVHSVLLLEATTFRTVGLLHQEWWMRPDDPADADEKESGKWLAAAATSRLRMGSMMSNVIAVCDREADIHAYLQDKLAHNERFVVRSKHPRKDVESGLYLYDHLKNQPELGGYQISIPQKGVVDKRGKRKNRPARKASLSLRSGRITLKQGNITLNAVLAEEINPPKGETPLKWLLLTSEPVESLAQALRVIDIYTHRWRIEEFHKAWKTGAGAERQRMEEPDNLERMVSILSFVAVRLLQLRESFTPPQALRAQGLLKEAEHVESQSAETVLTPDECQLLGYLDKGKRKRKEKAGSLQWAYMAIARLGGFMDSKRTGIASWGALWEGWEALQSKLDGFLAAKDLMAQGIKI
Method: The data in this graph were obtained from multiple experiments. Each data point represents at least two, typically three, independent experiments. Error is represented as the standard deviation (SD) from the fit of the data to the equation used to calculate the IC50. Tnp=transposase.
IC50 values were determined from gel shift assays, similar to FIG. 5. […] Each value represents at least two, typically three, independent experiments. Error is represented as the standard deviation (SD) from the fit of the data to the equation used to calculate the IC50.
DNA substrates: The oligonucleotides were purchased HPLC purified from IDT. dsDNA was formed by adding two μmoles of each oligonucleotide to 10 mM Tris-HCl pH 7.9 and 10 mM NaCl. The oligonucleotides were either heated to 96° C. for one minute followed by a decrease in temperature at 0.1° C./sec to 4° C. or heated to 90° C. in a 2 L water bath and cooled to 8° C. overnight. The transferred strand was 5′ end labeled with either rhodamine green for FP or fluorescein for gel shift assays.
The 19 bp DNA sequences used for FP assays were 5° C. […] The 40 bp DNA sequences used for the gel shift assays during assay development were 5° C.
as §1
FP and gel-shift assays: Reactions were performed as described in Ason, B., and W. S. Reznikoff, J Mol Biol 335:1213-25, 2004, except 800 nM transposase and 160 nM dsDNA were used for complex formation. For FP analysis, 60 μL reactions were analyzed using the FP protocol on a Wallac Victor V plate reader and a 7% native polyacrylamide gel was used in gel shift assays. For compound screening and subsequent analysis, 1 μL of either DMSO or test compound (final concentration […]) was added to the synapsis reactions. Compound screening was carried out using a Beckman Coulter Biomek FX in a 384 well format. Compounds identified as hits were rescreened using gel shift assays under synapsis conditions with a 120 μM compound concentration. IC50 values were obtained by fitting inhibitor titration data (0, 0.01, 0.05, 0.1, 0.5, 2.5, 10, 20, 35, 50, 100, 200, 400, 800 μM) to an exponential decay.

HIV-1 integrase [3] = biological target: T1, HIV-1 integrase; assay: HIV-1 integrase assay (3' strand processing, PAGE); type: biochemical; set-up: made in house
Method: as §2

[4] = tested on: luciferase expression from proviral DNA; assay: Established provirus luciferase expression in stably infected Ghost-R5 cells; type: cell-based, HIV-1; details: 75 μM inhibitor, chronically infected cells
Method: To assess the potential effects of the inhibitory compounds on post-integration events such as transcription, translation, and luciferase enzyme stability and activity, Ghost-R5 cells stably infected several weeks earlier with the same virus preparation were incubated with inhibitory compound in 96 well dishes and luciferase activity was monitored 48 hours later by the addition of 100 μL of Bright-Glo reagent to each well, as described above.

HIV-1 = tested on: HIV-1
Method: HIV-1 transduction assay and inhibitory screen: 10,000 Ghost-R5 cells per well were plated in a 384 well plate in 49 μL media. 18 hours after plating, 1 μL of inhibitory compound, dissolved in DMSO, was added and gently mixed into solution. Following a 1 hour 37° C. incubation, HIV-1 virions were added in a final infectious volume of 100 μL. 44-48 hours after infection, 87 μL of media was removed from each well, and 13 μL/well of Bright-Glo luciferase detection reagent (Promega) was added. After a 2 minute incubation, the plates were read on a multiwell plate luminometer.
In parallel, cells infected with virus and compound were assayed for luciferase expression by the addition of […] of Bright-Glo reagent, as described above. In this way, effect of the inhibitory compounds on luciferase expression brought about by successful transduction was measured in the constant presence of the compounds.

[5] = tested on: HIV reverse transcription; assay: Quantitative real-time PCR of reverse transcripts in acutely infected cells; type: cell-based, HIV-1; details: 75 μM inhibitor, QPCR
Method: Quantitative real-time PCR of reverse transcripts, detection of transduction in newly infected cells, and effect of compounds on established provirus expression in stably infected cells: 10,000 Ghost-R5 cells were plated in 96 well dishes, treated with compound in a total volume of 75 μL, and incubated at 37° C. for 1 hour. Virus was then added in an additional volume of 25 μL. The final infectious volume was 100 μL, the final DMSO concentration was 1%, and the final compound concentration was as indicated. DNA was harvested using the DNeasy kit (Qiagen) 24 hours after infection in the constant presence of inhibitory compounds. Late DNA products of HIV reverse transcription were quantitated using the primers MH531 and MH532, and the probe LTR-P, as described in Burke, T. R. et al., J Med Chem 38:4171-8, 1995, herein incorporated by reference in its entirety.

Tn5 transposase = biological target: T3, Tn5 transposase (Escherichia coli, UniProt Q46731, E54K/L372P/M56A); type: binding
T3 construct: made in house
Method: For FP analysis, 60 μL reactions were analyzed using the FP protocol on a Wallac Victor V plate reader and a 7% native polyacrylamide gel was used in gel shift assays. For compound screening and subsequent analysis, 1 μL of either DMSO or test compound (final concentration 80 KIM) was added to the synapsis reactions. Compound screening was carried out using a Beckman Coulter Biomek FX in a 384 well format. Compounds identified as hits were rescreened using gel shift assays under synapsis conditions with a 120 μM compound concentration. IC50 values were obtained by fitting inhibitor titration data (0, 0.01, 0.05, 0.1, 0.5, 2.5, 10, 20, 35, 50, 100, 200, 400, 800 μM) to an exponential decay.

[6] = read-out: HIV-1 IN (integrase) in vitro IC50
[7] = 1 μM integrase, pre-incubated 30° C. 30 min, 21-base pair 32P substrate, 10 mM MnCl2, 15 min 37° C., ± SD from fit, at least two, typically three experiments, read-out: HIV-1 integrase (3' strand processing) IC50

| Compound | IC50 [2] | other results |
| --- | --- | --- |
| O=C(/C=C/c1ccccc1)C1=C(O)C(=O)N(c2cccc(C(F)(F)F)c2)C1c1ccc([N+](=O)[O-])cc1 (stereo not drawn) [Compound 10-F] |  | IC50 (HIV-1 integrase [1]; [6]): 11 ± 4 µM |
| O=C(C1=C(O)C(=O)N(c2ccccc2)C1c1cccc([N+](=O)[O-])c1)c1ccccc1 (stereo not drawn) [Compound 10-A] |  | IC50 (HIV-1 integrase [1]; [6]): 165 ± 35 µM |
| O=C(Nc1ccccc1C(=O)O)c1ccc(NC(=O)C(c2ccccc2)c2ccccc2)cc1 [Compound 17] | 9.3 ± 0.9 µM |  |
| COc1ccc(C(c2c(O)c3ccccc3oc2=O)c2c(O)c3ccccc3oc2=O)cc1CSc1ccccn1 [Compound 2] | 4.8 ± 0.4 µM |  |
| O=c1oc2ccccc2c(O)c1C(c1cccc(F)c1)c1c(O)c2ccccc2oc1=O [Compound 1] | 8.1 ± 1.2 µM |  |
| Cc1ccccc1N1C(=O)C(O)=C(C(=O)/C=C/c2ccccc2)C1c1ccc(Br)cc1 (stereo not drawn) [Compound 10-G] |  | IC50 (HIV-1 integrase [1]; [6]): 11 ± 2 µM |
| COc1ccc(N2C(=O)C(O)=C(C(=O)/C=C/c3ccccc3)C2c2ccc([N+](=O)[O-])cc2)cc1 (stereo not drawn) [Compound 10-C] |  | IC50 (HIV-1 integrase [1]; [6]): 46 ± 12 µM |
| COc1cccc(C(c2c(O)c3ccccc3oc2=O)c2c(O)c3ccccc3oc2=O)c1 [Compound 12] | 9.5 ± 0.9 µM |  |
| COc1ccc(N2C(=O)C(O)=C(C(=O)/C=C/c3ccccc3)C2c2cccc([N+](=O)[O-])c2)cc1 (stereo not drawn) [Compound 10-B] |  | IC50 (HIV-1 integrase [1]; [6]): 22 ± 12 µM |
| Cc1ccc(C(=O)Nc2ccccc2C(=O)Nc2ccccc2C(=O)O)cc1 [Compound 8] | 8.7 ± 1 µM |  |
| O=C1C(=C2c3ccccc3C(=O)C2C2c3ccccc3Oc3ccccc32)C(=O)c2ccccc21 (stereo not drawn) [Compound 9] | 3.4 ± 0.7 µM |  |
| O=C(/C=C/c1ccccc1)C1=C(O)C(=O)N(c2cccc(C(=O)O)c2)C1c1ccc([N+](=O)[O-])cc1 (stereo not drawn) [Compound 10-D] |  | IC50 (HIV-1 integrase [1]; [6]): 87 ± 9 µM |
| COc1ccc(C(c2c(O)c3ccccc3oc2=O)c2c(O)c3ccccc3oc2=O)cc1Cn1nc(C)c([N+](=O)[O-])c1C [Compound 4] | 4.7 ± 0.4 µM | IC50 (HIV-1 integrase [1]; [7]): 9 ± 2 µM |
| O=C(Nc1ccccc1C(=O)O)c1ccc2c(c1)C(=O)N(c1ccccc1-c1ccccc1)C2=O [Compound 15] | 20 ± 2 µM |  |
| COc1ccc(N2C(=O)C(O)=C(C(=O)/C=C/c3ccccc3)C2c2cccc([N+](=O)[O-])c2)cc1 (stereo not drawn) [10-B] |  | inhibition of integrase in vitro (in words) (HIV-1 integrase [3]): inhibit; effect on luciferase expression from proviral DNA [4]: no significant inhibitory effect; inhibition of HIV-1 infection in cells (in words) (HIV-1): inhibit; effect on reverse transcription (viral DNA synthesis) [5]: either uninhibited, or only inhibited to a small extent; also recorded: no significant inhibitory effect; inhibition of transposase assembly (in words) (Tn5 transposase): inhibit |
| O=S(=O)(c1cc(Cl)cc(Cl)c1O)c1cc(Cl)cc(Cl)c1O [Compound 6] | 4 ± 0.3 µM | IC50 (HIV-1 integrase [1]; [7]): 32 ± 9 µM |
| O=C(O)C(Cc1ccccc1)N1C(=O)C(=Cc2ccc(Br)cc2)SC1=S (stereo not drawn) [Compound 18] | 10 ± 1 µM |  |
| COc1cc(C=C2SC(=S)NC2=O)ccc1OS(=O)(=O)c1ccccc1[N+](=O)[O-] [Compound 14] | 8.6 ± 0.8 µM | IC50 (HIV-1 integrase [1]; [7]): 17 ± 3 µM |
| O=C(O)C(Cc1ccccc1)N1C(=O)C(=CC=Cc2ccccc2)SC1=S (stereo not drawn) [Compound 19] | 16 ± 2 µM |  |
| COc1ccc(N2C(=O)C(O)=C(C(=O)/C=C/c3ccccc3)C2c2ccc(Cl)cc2)cc1 (stereo not drawn) [Compound 10-E] |  | IC50 (HIV-1 integrase [1]; [6]): 12 ± 3 µM |
| COc1cccc(OCCOc2cccc(C=C3SC(=S)NC3=O)c2)c1 [Compound 11] | 5.3 ± 0.9 µM |  |
| O=C(C1=C(O)C(=O)N(c2ccccc2)C1c1cccc([N+](=O)[O-])c1)c1ccccc1 (stereo not drawn) [compound 10-A] |  | inhibition of integrase in vitro (in words) (HIV-1 integrase [3]): impedes its efficacy as an integrase inhibitor |
| COc1cc(C=C2SC(=S)NC2=O)cc(Cl)c1OC(C)C [Compound 5] | 10 ± 1 µM |  |
| O=C(/C=C/c1ccccc1)C1=C(O)C(=O)N(c2ccccc2)C1c1cccc([N+](=O)[O-])c1 (stereo not drawn) [Compound 10] | 35 ± 3 µM |  |
| CCc1nnc(NS(=O)(=O)c2ccc(NC=CC(=O)c3ccc4ccccc4c3)cc2)s1 [Compound 7] | 4 ± 0.6 µM |  |
| Cc1ccc(C(c2c(O)c3ccccc3oc2=O)c2c(O)c3ccccc3oc2=O)cc1 [Compound 3] | 3.5 ± 0.4 µM |  |
| CCCOc1ccc(C(=O)Nc2ccc(Br)cc2C(=O)O)cc1 [Compound 20] | 20 ± 3 µM |  |
| O=C(Nc1ccccc1C(=O)O)c1cccc(NC(=O)C(c2ccccc2)c2ccccc2)c1 [Compound 16] | 46 ± 5 µM |  |
| O=C(NC(=S)Nc1cc([N+](=O)[O-])cc(Cl)c1O)c1ccccc1 [aromatic thiourea] |  | IC50 (Tn5 transposase; read-out: IC50, inhibition of Tn5 transposase-DNA complex assembly, gel shift assays, inhibitor titration): 24 µM |
